Our source for the AC50 and IC50 values is patent US20250092065A1, “2-(INDAZOL-5-YL)-6-(PIPERIDIN-4-YL)-1,7-NAPHTHYRIDINE DERIVATIVES AND RELATED COMPOUNDS AS MODULATORS FOR SPLICING NUCLEIC ACIDS AND FOR THE TREATMENT OF PROLIFERATIVE DISEASES” (REMIX THERAPEUTICS INC., priority 2022, published 2025).

This assay has as its system HTT mRNA. The assay is described as follows: RT-qPCR splicing assay, HTT mRNA canonical (CJ) and alternative (AJ) junction. Type of assay: cell-based, human. As to conditions: Homo sapiens; for AC50: HTT alternative junction mRNA, read-out: HTT AJ (increase in AJ mRNA, AC50). An outline of the steps: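 Junction-specific RT-qPCR read-out: CJ and AJ isoform levels, housekeeper-normalized (GAPDH/GUSB/PPIA), ΔΔCt vs DMSO, converted to RQ then % response. Cells: A673 (DMEM/10% FBS, adhered 24 h) or K562 (IMDM/10% FBS). Compound 11-pt 3-fold, top 10 uM, 24 h, 37 °C.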
Background: Quantitative PCR measures a nucleic acid by following its amplification.

Where [1] appears, read: HTT canonical junction mRNA, RT-qPCR, read-out: HTT CJ (decrease in CJ mRNA levels, IC50).
Where [2] appears, read: canonical junction qPCR panel, Table 4, read-out: HTT IC50 (decrease in CJ mRNA levels).

SMILES strings stand for the structures. Like-named read-outs stand apart in the source and are kept apart here. Bounds are passed on as bounds.

In the case of `C[C@H]1C[C@H](c2ccc3nc(-c4cc5cn(C)nc5c(F)c4O)ccc3n2)CCN1` (single isomer, unassigned) [Compound 356], the AC50 (as a rule, the concentration giving half of the maximal activity seen) (RT-qPCR) was < 0.1 µM. For the same compound, the IC50 (in general, the concentration at which inhibition is half-maximal) under setting [1] is < 0.1 µM and the half-inhibitory concentration (IC50) under setting [2] is < 0.1 µM.

Consider `Cc1c(O)c(-c2ccc3nc(N4CC[C@H](N[C@H]5C[C@H](F)C5)C4)ccc3n2)cc2cn(C)nc12` (single isomer, unassigned) [Compound 358], for which the AC50 (RT-qPCR) is < 0.1 µM. Moreover, the concentration for half-maximal inhibition (IC50) runs as follows: under setting [1], < 0.1 µM; under setting [2], < 0.1 µM.

As to `Cn1cc2cc(-c3ccc4nc(N5CC[C@@H](N)C5)ccc4n3)c(O)c(F)c2n1` (single isomer, unassigned) [Compound 362], where the note is “RT-qPCR”, the half-maximal activity concentration (AC50) was < 0.1 µM. Further, the IC50 under setting [1] was < 0.1 µM and the IC50 under setting [2] was < 0.1 µM.

With `CN[C@@H]1CCN(c2ccc3nc(-c4cc5cn(C)nc5c(C)c4O)ncc3n2)C1` (single isomer, unassigned) [Compound 368], the AC50 (RT-qPCR) lay in the range of 0.1 to 1 µM. For the same compound, the IC50 under setting [1] lay in the range of 0.1 to 1 µM and the half-inhibitory concentration (IC50) under setting [2] fell in the range of 0.1 to 1 µM.

For the compound `CN[C@H]1CCN(c2ccc3nc(-c4cc5cn(C)nc5c(C)c4O)ncc3n2)C1` (single isomer, unassigned) [Compound 369], the AC50 (RT-qPCR) lay in the range of 0.1 to 1 µM. In addition, the IC50 under setting [1] was in the range of 0.1 to 1 µM and the IC50 under setting [2] lay within 0.1 to 1 µM.

Take `Cc1nc2c(F)c(O)c(-c3ccc4nc(N5CC[C@H](NC6(CF)CC6)C5)ccc4n3)cc2o1` (single isomer, unassigned) [Compound 373]: the AC50 (RT-qPCR) was < 0.1 µM. The IC50 by setting is: under setting [1], < 0.1 µM; under setting [2], < 0.1 µM.

Turning to `Cc1nc2c(C)c(O)c(-c3ccc4nc(N5CC[C@H](NC6(CF)CC6)C5)ccc4n3)cc2o1` (single isomer, unassigned) [Compound 378], the AC50 (RT-qPCR) is < 0.1 µM. Further, the IC50 under setting [1] is < 0.1 µM and the IC50 under setting [2] was < 0.1 µM.

Turning to `Cc1nc2c(C)c(O)c(-c3ccc4nc(N5CC[C@@H](NC6(CF)CC6)C5)ccc4n3)cc2o1` (single isomer, unassigned) [Compound 379], the AC50 (RT-qPCR) lay within 0.1 to 1 µM. The IC50 reads like this: under setting [1], < 0.1 µM; under setting [2], < 0.1 µM.

As for `Cn1cc2cc(-c3ncc4nc(N5CC[C@@H](N)C5)ccc4n3)c(O)c(F)c2n1` (single isomer, unassigned) [Compound 380], the AC50 (RT-qPCR) lay in the range of 0.1 to 1 µM. In addition, the IC50 was < 0.1 µM under setting [1] and < 0.1 µM under setting [2].

With `C[C@H]1C[C@@H](c2ccc3nc(-c4cc5cn(C)nc5c(F)c4O)ccc3n2)CCN1` (single isomer, unassigned) [Compound 383], the AC50 (RT-qPCR) was < 0.1 µM. Further, the IC50 by setting is: under setting [1], < 0.1 µM; under setting [2], < 0.1 µM.

Take `Cn1cc2cc(-c3ccc4nc(C5CCNC[C@H]5O)ccc4n3)c(O)cc2n1` (single isomer, unassigned) [Compound 386]: the AC50 (RT-qPCR) was > 10 µM. In addition, the IC50 is > 10 µM under setting [1] and > 10 µM under setting [2].

With `Cn1cc2cc(-c3ccc4nc(N5CC[C@@H](NC(C)(C)C)C5)ccc4n3)c(O)c(F)c2n1` (single isomer, unassigned) [Compound 391], the AC50 (RT-qPCR) was < 0.1 µM. Also, the IC50 is < 0.1 µM under setting [1] and < 0.1 µM under setting [2].

In the case of `Cn1cc2cc(-c3ccc4nc(N5CC[C@H](NC(C)(C)C)C5)ccc4n3)c(O)c(F)c2n1` (single isomer, unassigned) [Compound 392], the AC50 (RT-qPCR) was < 0.1 µM. In addition, the 50% inhibitory concentration (IC50) was < 0.1 µM under setting [1] and < 0.1 µM under setting [2].

Consider `Cc1c(O)c(-c2ncc3nc([C@@H]4CCNC4)ccc3n2)cc2cn(C)nc12` (single isomer, unassigned) [Compound 398], for which, for the setting “RT-qPCR”, the AC50 was 1 to 10 µM. The IC50 under setting [1] was in the range of 1 to 10 µM and the IC50 under setting [2] was in the range of 1 to 10 µM.

Consider `Cc1nc2c(C)c(O)c(-c3ccc4nc(N5CC[C@@H](NC6CC6)C5)ncc4n3)cc2o1` (single isomer, unassigned) [Compound 432], for which, for the setting “RT-qPCR”, the AC50 is < 0.1 µM. The IC50 under setting [1] is < 0.1 µM and the IC50 under setting [2] was < 0.1 µM.

Regarding `Cc1nc2cc(O)c(-c3ccc4nc(N5CC[C@@H](NC6CC6)C5)ncc4n3)cc2o1` (single isomer, unassigned) [Compound 434], where the note is “RT-qPCR”, the AC50 was < 0.1 µM. The half-maximal inhibitory concentration (IC50) by setting is: under setting [1], < 0.1 µM; under setting [2], < 0.1 µM.

Regarding `Cc1nc2c(C)c(O)c(-c3ccc4cc(N5CC[C@@H](NC(C)(C)C)C5)ncc4n3)cc2o1` (single isomer, unassigned) [Compound 444], where the note is “RT-qPCR”, the AC50 lay within 0.1 to 1 µM. Moreover, the half-inhibitory concentration (IC50) is < 0.1 µM under setting [1] and < 0.1 µM under setting [2].

Regarding `Cc1nc2c(C)c(O)c(-c3ccc4cc(N5CC[C@H](NC(C)(C)C)C5)ncc4n3)cc2o1` (single isomer, unassigned) [Compound 445], the AC50 (RT-qPCR) was 1 to 10 µM. Further, the IC50 lay in the range of 1 to 10 µM under setting [1] and 1 to 10 µM under setting [2].

`Cc1nc2cc(O)c(-c3ccc4nc(N5CC[C@@H](NC6(CF)CC6)C5)ccc4n3)cc2o1` (single isomer, unassigned) [Compound 488]: the AC50 (RT-qPCR) was < 0.1 µM. Also, the IC50 by setting is: under setting [1], < 0.1 µM; under setting [2], < 0.1 µM.

Take `Cc1nc2cc(O)c(-c3ccc4nc(N5CC[C@H](NC6(CF)CC6)C5)ccc4n3)cc2o1` (single isomer, unassigned) [Compound 489]: for the setting “RT-qPCR”, the AC50 was < 0.1 µM. The IC50 under setting [1] was < 0.1 µM and the IC50 under setting [2] is < 0.1 µM.

In the case of `Cc1nc2c(F)c(O)c(-c3ccc4nc(N5CC[C@@H](NC6(CF)CC6)C5)ccc4n3)cc2o1` (single isomer, unassigned) [Compound 491], the AC50 (RT-qPCR) is < 0.1 µM. In addition, the half-inhibitory concentration (IC50) is < 0.1 µM under setting [1] and < 0.1 µM under setting [2].

Turning to `Cn1cc2cc(-c3ccc4nc(N5CCC(NC6(CF)CC6)C5)ccc4n3)c(O)c(F)c2n1` (stereo in doubt) [Compound 353, 7-fluoro-5-{6-[(3R)-3-{[1-(fluoromethyl)cyclopropyl]amino}pyrrolidin-1-yl]-1,5-naphthyridin-2-yl}-2-methylindazol-6-ol], where the note is “RT-qPCR”, the AC50 was < 0.1 µM. For the same compound, the concentration for half-maximal inhibition (IC50) is, setting by setting: under setting [1], < 0.1 µM; under setting [2], < 0.1 µM.

On to `Cn1cc2cc(-c3ccc4nc(N5CCC(NC6(CF)CC6)C5)ccc4n3)c(O)c(F)c2n1` (stereo in doubt) [Compound 357, 7-fluoro-5-{6-[(3S)-3-{[1-(fluoromethyl)cyclopropyl]amino}pyrrolidin-1-yl]-1,5-naphthyridin-2-yl}-2-methylindazol-6-ol], for which, under “RT-qPCR”, the AC50 was < 0.1 µM. Besides, the IC50 was < 0.1 µM under setting [1] and < 0.1 µM under setting [2].

As for `Cn1cc2cc(-c3ccc4nc(N5CCC(N)C5)ccc4n3)c(O)c(F)c2n1` (stereo in doubt) [Compound 363, 5-{6-[(3R)-3-aminopyrrolidin-1-yl]-1,5-naphthyridin-2-yl}-7-fluoro-2-methylindazol-6-ol], the half-maximal activity concentration (AC50) (RT-qPCR) is < 0.1 µM. Further, the IC50 is, setting by setting: under setting [1], < 0.1 µM; under setting [2], < 0.1 µM.

For the compound `Cc1nc2c(F)c(O)c(-c3ccc4nc(N5CC[C@@H](N[C@H]6C[C@@H](F)C6)C5)ccc4n3)cc2o1` (stereo in doubt) [Compound 375], the AC50 (RT-qPCR) is < 0.1 µM. Moreover, the IC50 is, setting by setting: under setting [1], < 0.1 µM; under setting [2], < 0.1 µM.

`Cc1nc2c(C)c(O)c(-c3ccc4nc(N5CC[C@@H](N[C@H]6C[C@@H](F)C6)C5)ccc4n3)cc2o1` (stereo in doubt) [Compound 376]: the AC50 (RT-qPCR) lay in the range of 0.1 to 1 µM. In addition, the IC50 by setting is: under setting [1], < 0.1 µM; under setting [2], < 0.1 µM.

As to `Cc1nc2c(C)c(O)c(-c3ccc4nc(N5CC[C@H](N[C@H]6C[C@@H](F)C6)C5)ccc4n3)cc2o1` (stereo in doubt) [Compound 377], the AC50 (RT-qPCR) was < 0.1 µM. The IC50 runs as follows: under setting [1], < 0.1 µM; under setting [2], < 0.1 µM.

`Cc1nc2cc(O)c(-c3ccc4nc(N5CC[C@@H](N[C@H]6C[C@@H](F)C6)C5)ccc4n3)cc2o1` (stereo in doubt) [Compound 395]: the AC50 (RT-qPCR) lay within 0.1 to 1 µM. Moreover, the IC50 by setting is: under setting [1], 0.1 to 1 µM; under setting [2], 0.1 to 1 µM.

Turning to `Cc1nc2cc(O)c(-c3ccc4nc(N5CC[C@H](N[C@H]6C[C@@H](F)C6)C5)ccc4n3)cc2o1` (stereo in doubt) [Compound 396], the AC50 (RT-qPCR) was < 0.1 µM. Further, the IC50 reads like this: under setting [1], < 0.1 µM; under setting [2], < 0.1 µM.

As to `Cn1cc2cc(-c3ccc4nc(N5CC[C@@H](NC6(CF)CC6)C5)ccc4n3)c(O)cc2n1` [Compound 354, 5-{6-[(3R)-3-{[1-(fluoromethyl)cyclopropyl]amino}pyrrolidin-1-yl]-1,5-naphthyridin-2-yl}-2-methylindazol-6-ol], under “RT-qPCR”, the half-maximal activity concentration (AC50) was < 0.1 µM. In addition, the IC50 reads like this: under setting [1], < 0.1 µM; under setting [2], < 0.1 µM.

Regarding `Cn1cc2cc(-c3ccc4nc(N5CC[C@H](NC6(CF)CC6)C5)ccc4n3)c(O)cc2n1` [Compound 355, 5-{6-[(3S)-3-{[1-(fluoromethyl)cyclopropyl]amino}pyrrolidin-1-yl]-1,5-naphthyridin-2-yl}-2-methylindazol-6-ol], the AC50 (RT-qPCR) was < 0.1 µM. For the same compound, the concentration for half-maximal inhibition (IC50) was < 0.1 µM under setting [1] and < 0.1 µM under setting [2].

For `Cc1c(O)c(-c2ccc3nc(N4CCC(NC5(CF)CC5)C4)ccc3n2)cc2cn(C)nc12` (stereo not drawn) [Compound 360, 5-[6-(3-{[1-(fluoromethyl)cyclopropyl]amino}pyrrolidin-1-yl)-1,5-naphthyridin-2-yl]-2,7-dimethylindazol-6-ol], the AC50 (RT-qPCR) was < 0.1 µM. The 50% inhibitory concentration (IC50) by setting is: under setting [1], < 0.1 µM; under setting [2], < 0.1 µM.

In the case of `Cc1c(O)c(-c2cc(C(C)O)c3nc(N4CCNCC4)ccc3n2)cc2cn(C)nc12` (stereo not drawn) [Compound 364, 5-[4-(1-hydroxyethyl)-6-(piperazin-1-yl)-1,5-naphthyridin-2-yl]-2,7-dimethylindazol-6-ol], the concentration at half-maximal activity (AC50) (RT-qPCR) is > 10 µM. For the same compound, the IC50 by setting is: under setting [1], > 10 µM; under setting [2], > 10 µM.
